Our source for the Kd and IC50 values is patent US11014908B2, “Chemical compounds” (Pfizer Inc., priority 2018, dated 2021).

The structures appear in SMILES notation.

Assay [1] has as its target T1, purified sickle cell hemoglobin (HbS) (Homo sapiens, UniProt P68871+P69905, E7V).
T1 construct: HbS was obtained from the blood of homozygous S/S patients; from tissue; host or cells: red blood cells of homozygous S/S patients
Put plainly: Binding affinity to purified HbS by Surface Plasmon Resonance (SPR). Particulars: crosslinked biotinylated HbS, 1:1 binding model. As to the method: Binding Affinity, Kd (uM)
The binding affinity for compounds to purified sickle cell hemoglobin (HbS) was determined using Surface Plasmon Resonance (SPR). Patient Sickle Cell blood was obtained from Boston Children's Hospital in accordance with Institutional Review Board protocols. HbS was obtained from the blood of homozygous S/S patients, and purified using the method described in: Antonini and Brunori, Hemoglobin and Myoglobin in their Reactions with Ligands. Amsterdam, London, North-Holland Publishing Company, 1971. Whole blood was separated into red blood cell and plasma components by centrifugation, after which the plasma was decanted and discarded. Packed red blood cells were washed with normal saline (0.9% NaCl) and then lysed by 2:1 dilution with cold deionized water. The hemolysate was centrifuged to remove cellular debris, and further purified with the addition of Drabkin's Buffer (2.8 M potassium phosphate), and centrifugation with Celite®. Organic phosphates (2,3-BPG) were removed via gel filtration with Sephadex® G-25. HbS and wild-type hemoglobin, hemoglobin A (HbA), were separated by […], using diethylaminoethyl (DEAE)-Sepharose® fast flow, and eluted using a pH gradient from pH 8.5-pH 7.5. Purity of the resulting HbS and HbA was determined by native gel electrophoresis and HbS fractions used further.
To stabilize the tetrameric structure of hemoglobin, HbS was crosslinked between the beta subunits (Lys82-Lys82) using bis(3,5-dibromosalicyl) fumarate, as described in: Shibayama N. et al, J Am Chem Soc 2014, 136, 13, 5097-5105 and Shibayama N. et al, Biochemistry 1991, 39, 33, 8158-8165). Crosslinked HbS was subsequently biotynylated and captured on a custom made Streptavidin sensor to achieve protein density of 4000 to 5000 resonance units (RUs) on the surface. Compound binding to HbS using SPR was tested on Sierra Sensors MASS-1 instrument. The running buffer contained 100 mM Potassium Phosphate, pH 7.5, 0.005% Tween-20, 1 mM ethylenediaminetetraacetic acid (EDTA), 0.1 mg/mL bovine serum albumin with 1% DMSO. Compound samples were injected at a flow rate of 30 μL/min for 2 minutes association and at least 5 minutes of dissociation time. A 2- or 3-fold dilution series containing at least 4 concentrations were tested for each compound. The dose range was selected based on the activity of the compounds in biochemical assays, when available. Multiple blank injections of running buffer were run before and after each compound series to allow blank subtraction for compound data in the analysis software. Positive controls were run in each experiment to monitor and maintain the activity of HbS on the surface. A DMSO curve was run at the beginning of each data set to apply an excluded volume correction to the data during analysis. The data were processed and analyzed using Sierra Sensors and Scrubber 2.0 software. The binding affinities (dissociation constant Kd) were calculated by fitting the sensorgrams to a 1:1 binding model.

The target of another assay is T2, HbS (Homo sapiens, UniProt P68871+P69905, E7V).
T2 construct: HbS was obtained from the blood of homozygous S/S patients; from tissue; host or cells: red blood cells of homozygous S/S patients
Briefly: 'R'-'T' assay (conversion of oxy HbS to deoxy HbS under deoxygenating conditions). The class given is biochemical. The conditions noted are these: 50% inhibition of HbS 'R'-'T' conversion; 3 uM HbS, <1% O2. Here is the method: Conversion from oxy (R, relaxed state) to deoxy (T, tense state) HbS in the presence of compound was performed to determine the ability of compounds to stabilize the oxy (R) state under deoxygenating conditions. The assay run was similar to the ‘Oxygen dissociation assay’ described in Oksenberg et al, Br J Haematology, 2016, 175, 141-153.
Assay ready compound plates were prepared by first preparing a master serial dilution plate from a 30 mM initial compound stock in 100% DMSO. From this master serial dilution plate, 167 nL of the desired compound concentration was delivered to the assay ready plates using acoustical dispensing. Plates were frozen at −20° C. until needed. Purified HbS-O2 (i.e. oxy HbS) was diluted to 3 uM in 100 mM potassium phosphate buffer, pH=7.4. 50 uL of 3 uM stock solution was added to each well of the assay ready plate and mechanically mixed eight times. Following mixing the plates were covered and incubated at room temperature for one hour with moderate shaking. Following incubation, the plates were placed in a deoxygenated environment (<1% O2) for two hours, and the conversion to deoxy HbS monitored as a function of time. Oxygenated and deoxygenated forms of hemoglobin were detected using the absorbance of the Soret peaks at 415 and 430 nm respectively, and absorbance measurements (optical density, OD) were taken at 0, 90 and 120 minutes. Background absorbance for correction was collected at 700 nm.
Data were analyzed by first subtracting baseline absorbance at 700 nm from 415 nm and 430 nm data at each timepoint, and then taking the ratio of 415/430 nm data (Ratio=[(OD415−OD700)/(OD430−OD700)]. The effect at each timepoint was calculated using the ratios from the previous calculation at time 0 and each time point of interest (Effect^time x=Ratio^time x/Ratio^time 0). Percent effect was calculated by comparing the effects of compound versus HbS only with the effects observed by the positive control compound tucaresol (percent effect=[(effect^time x compound−effect^time x HbS)/(effect^time x tucaresol−effect^time x HbS)]×100). Data were reported as the percent effect for a single point. Calculations to determine the concentration of compound for 50% inhibition (IC50 (uM)) of the HbS ‘R’-‘T’ conversion were based on the percent effect at varying compound concentration.

What is called Kd is the free concentration of one partner at which half of the binding sites on the other are occupied at equilibrium, for simple one-to-one binding. Higher therefore signals a looser complex. The IC50 is the concentration that inhibits the measured activity by half. A low value points to greater potency. On to `C[C@H](Oc1cc2c(F)ccc(F)c2nc1N)c1cc(C(=O)O)ccc1-n1cccn1` [Example 19, 3-{(1S)-1-[(2-amino-5,8-difluoroquinolin-3-yl)oxy]ethyl}-4-(1H-pyrazol-1-yl)benzoic Acid], for which the Kd in assay [1] amounted to 0.064 µM. On HbS, this compound registered an IC50 of 4.5 µM.
In assay [1], `C[C@H](Oc1cc2cc(F)ccc2nc1N)c1cc(-c2noc(=O)[nH]2)ccc1-n1cccn1` [Example 17, 3-[3-{(1S)-1-[(2-amino-6-fluoroquinolin-3-yl)oxy]ethyl}-4-(1H-pyrazol-1-yl)phenyl]-1,2,4-oxadiazol-5(4H)-one] showed a Kd of 0.014 µM. At HbS, this compound showed an IC50 of 5.05 µM.
For `Cc1cc2nc(N)c(O[C@@H](C)c3nc4[nH]ncc4cc3-n3cccn3)cc2cn1` [Example 75, 7-methyl-3-{(1S)-1-[5-(1H-pyrazol-1-yl)-1H-pyrazolo[3,4-b]pyridin-6-yl]ethoxy}-1,6-naphthyridin-2-amine], in assay [1], the affinity, expressed as Kd, was 0.036 µM. The same compound gave an IC50 on HbS of 3.76 µM.
For `C[C@H](Oc1cc2cc(F)ccc2nc1N)c1cc(C(=O)NCC(=O)O)ccc1-n1cccn1` [Example 10, N-[3-{(1S)-1-[(2-amino-6-fluoroquinolin-3-yl)oxy]ethyl}-4-(1H-pyrazol-1-yl)benzoyl]glycine] the same measures were 0.211 µM and 5.86 µM.
For `C[C@H](Oc1cc2cc(C(C)(C)O)ccc2nc1N)c1nc(O)ccc1-n1cccn1` [Example 50, 6-[(1S)-1-{[2-amino-6-(2-hydroxypropan-2-yl)quinolin-3-yl]oxy}ethyl]-5-(1H-pyrazol-1-yl)pyridin-2-ol] the same measures were 1.33 µM and 100 µM.
In assay [1], `C[C@H](O)c1ccc2nc(N)c(O[C@@H](C)c3nc(O)ccc3-n3cccn3)cc2c1` [Example 52, 6-[(1S)-1-({2-amino-6-[(1S)-1-hydroxyethyl]quinolin-3-yl}oxy)ethyl]-5-(1H-pyrazol-1-yl)pyridin-2-ol] came in with a Kd of 10 µM. This compound also came in with an IC50 on HbS of 100 µM.
The compound `C[C@H](Oc1cc2ccccc2nc1N)c1ncc(F)cc1-n1cccn1` [Example 45, 3-{(1S)-1-[5-fluoro-3-(1H-pyrazol-1-yl)pyridin-2-yl]ethoxy}quinolin-2-amine] showed a Kd in assay [1] of 0.185 µM. For the same compound, half-maximal inhibition against HbS (IC50) was put at 5.58 µM.
The matching figures for `C[C@H](Oc1cc2cc(F)cc(F)c2nc1N)c1[nH]c(=O)ccc1-n1cccn1` [Example 53, 6-{(1S)-1-[(2-amino-6,8-difluoroquinolin-3-yl)oxy]ethyl}-5-(1H-pyrazol-1-yl)pyridin-2-ol]: 0.016 µM and 4.25 µM.
The compound `C[C@H](Oc1cc2cc(C(N)=O)ccc2nc1N)c1nc(CO)ccc1-n1cccn1` [Example 55, 2-amino-3-{(1S)-1-[6-(hydroxymethyl)-3-(1H-pyrazol-1-yl)pyridin-2-yl]ethoxy}quinoline-6-carboxamide] yielded a Kd in assay [1] of 0.406 µM. Further, the half-inhibitory concentration (IC50) against HbS was determined as 5.71 µM.
For `CC(Oc1cc2cc(C(N)=O)c(F)cc2nc1N)c1cc2[nH]ncc2cc1-n1cccn1` (stereo in doubt) [Example 65, 2-amino-7-fluoro-3-{(1R)-1-[5-(1H-pyrazol-1-yl)-1H-indazol-6-yl]ethoxy}quinoline-6-carboxamide] the same measures were 0.015 µM and 6.17 µM.
`C[C@H](Oc1cc2cc(F)ccc2nc1N)c1nc(OCC(=O)O)ccc1-n1cccn1` [Example 40, {[6-{(1S)-1-[(2-amino-6-fluoroquinolin-3-yl)oxy]ethyl}-5-(1H-pyrazol-1-yl)pyridin-2-yl]oxy}acetic Acid]: in assay [1], the Kd came to 0.164 µM. On HbS, this compound showed an IC50 of 5.27 µM.
The matching figures for `C[C@H](Oc1cc2cc(F)cc(F)c2nc1N)c1cc2c(cnn2CC(=O)O)cc1-n1cccn1` [Example 69, [6-{(1S)-1-[(2-amino-6,8-difluoroquinolin-3-yl)oxy]ethyl}-5-(1H-pyrazol-1-yl)-1H-indazol-1-yl]acetic Acid]: 0.01 µM and 4.67 µM.
For `COc1ccc(-n2cccn2)c([C@H](C)Oc2cc3cc(F)cc(F)c3nc2N)n1` [Example 56, 6,8-difluoro-3-{(1S)-1-[6-methoxy-3-(1H-pyrazol-1-yl)pyridin-2-yl]ethoxy}quinolin-2-amine] the same measures were 0.053 µM and 5.68 µM.
For `COC(=O)c1ccc(-n2cccn2)c([C@H](C)Oc2cc3cc(F)ccc3nc2N)c1` [Example 6, methyl 3-{(1S)-1-[(2-amino-6-fluoroquinolin-3-yl)oxy]ethyl}-4-(1H-pyrazol-1-yl)benzoate] the same measures were 0.035 µM and 4.48 µM.
In assay [1], `Cc1cc2nc(N)c(O[C@@H](C)c3ncc(F)cc3-n3cccn3)cc2cn1` [Example 36, 3-{(1S)-1-[5-fluoro-3-(1H-pyrazol-1-yl)pyridin-2-yl]ethoxy}-7-methyl-1,6-naphthyridin-2-amine] gave a Kd of 0.16 µM. On HbS, this compound returned an IC50 of 7.71 µM.
In turn, `C[C@H](Oc1cc2cc(F)ccc2nc1N)c1cc(CC(=O)O)ccc1-n1cccn1` (single isomer, unassigned) [Example 8] returned a Kd in assay [1] of 0.271 µM. Moreover, the IC50 at HbS was found to be 7.18 µM.
`C[C@H](Oc1cc2cc(F)ccc2nc1N)c1cc(NS(C)(=O)=O)ccc1-n1cccn1` [Example 18, N-[3-{(1S)-1-[(2-amino-6-fluoroquinolin-3-yl)oxy]ethyl}-4-(1H-pyrazol-1-yl)phenyl]methanesulfonamide]: in assay [1], the Kd was found to be 0.194 µM. Also, it took 7.16 µM to reach half-maximal inhibition at HbS (IC50).
For the compound `C[C@H](Oc1cc2cc(F)ccc2nc1N)c1cc2c(cnn2CC(=O)O)cc1-n1cccn1` [Example 67, [6-{(1S)-1-[(2-amino-6-fluoroquinolin-3-yl)oxy]ethyl}-5-(1H-pyrazol-1-yl)-1H-indazol-1-yl]acetic Acid], the affinity in assay [1], expressed as Kd, was 0.009 µM. The compound also showed an IC50 against HbS of 3.71 µM.
As for `C[C@H](Oc1cc2cc(F)ccc2nc1N)c1cc(C(=O)O)c(F)cc1-n1cccn1` [Example 9, 5-{(1S)-1-[(2-amino-6-fluoroquinolin-3-yl)oxy]ethyl}-2-fluoro-4-(1H-pyrazol-1-yl)benzoic Acid], the affinity in assay [1], expressed as Kd, was 0.087 µM. This compound came in with an IC50 against HbS of 4.72 µM.
For `Cc1cc2nc(N)c(O[C@@H](C)c3nc4c(cnn4CCO)cc3-n3cccn3)cc2cn1` [Example 77, 2-[6-{(1S)-1-[(2-amino-7-methyl-1,6-naphthyridin-3-yl)oxy]ethyl}-5-(1H-pyrazol-1-yl)-1H-pyrazolo[3,4-b]pyridin-1-yl]ethanol] the same measures were 0.195 µM and 6.3 µM.
The matching figures for `C[C@H](Oc1cc2ncc(F)cc2nc1N)c1nc(O)ccc1-n1cccn1` [Example 48, 6-{(1S)-1-[(2-amino-7-fluoro-1,5-naphthyridin-3-yl)oxy]ethyl}-5-(1H-pyrazol-1-yl)pyridin-2-ol]: 0.253 µM and 4.71 µM.
